In patent US12187727B2, “Methods for antagonizing a melanocortin 4 receptor” (Pfizer Inc., priority 2020, dated 2025) one finds Kb data, which are given here for 31 compounds.

The structures appear in SMILES notation. Where two headings read alike, the source gives them in different places.

The experiment addresses human Melanocortin-4 receptor (MC4R) (Homo sapiens (Human), UniProt P32245). Briefly: Functional in vitro MC4R antagonist potency assay (cAMP HTRF in CHO cells). It counts as cell-based. As for the experimental part:
Example BB. Functional In Vitro MC4R Antagonist Potency Assay
The functional in vitro antagonist potency for test compounds was determined by monitoring intracellular cyclic adenosine monophosphate (cAMP) levels in Chinese hamster ovary (CHO—) cells stably expressing the human Melanocortin-4 receptor (MC4R). Following agonist activation, human MC4R associates with the G-protein complex causing the Gα subunit to exchange bound GDP for GTP, followed by dissociation of the Ga-GTP complex. The activated Gα subunit can couple to downstream effectors to regulate the levels of second messengers or cAMP within the cell. Thereby, determination of intracellular cAMP levels allows for pharmacological characterization. Intracellular cAMP levels are quantitated using a homogenous assay utilizing the Homogeneous Time-Resolved Fluorescence (HTRF) technology from CisBio. The method is a competitive immunoassay between native cAMP produced by cells and the cAMP labelled with the acceptor dye, d2. The two entities then compete for binding to a monoclonal anti-cAMP antibody labeled with cryptate. The specific signal is inversely proportional to the concentration of cAMP in the cells.
Test compounds were solubilized to 30 mM in 100% dimethyl sulfoxide (DMSO) and stored. […] The final compound concentration range in the assay was 400 nM to […], with a final DMSO concentration of 0.1%.
(95% O2: 5% CO2) overnight, with micro-clime lids (Labcyte, Cat No. LLS-0310). […] Cells were incubated with compound for 30 minutes at 37° C. (95% O2: 5% CO2) before addition of 5 μL EC80, agonist stimulation (200 nM α-melanocyte stimulating hormone, aMSH, Bachem) and another 30-minute incubation at 37° C. (95% O2: 5% CO2). Intracellular cAMP levels were quantified as per Cisbio's protocol (5 uL of D2 and then 5 uL Cryptate, incubated for 1-2 hours at room temperature).
Data expressed as nM cAMP were then normalized to control wells using Activity Base (IDBS). Zero percent effect (ZPE) was defined as nM of cAMP generated from ECK, agonist stimulation (200 nM aMSH). In the absence of an antagonist control compound, one hundred percent effect (HPE) was defined as nM of cAMP generated from assay buffer/vehicle only.
In general terms: Time-resolved FRET reads energy transfer from a long-lived donor to a nearby acceptor.

Setting [1] is: read-out: Kb (nM) Antagonist geometric mean.
Where [2] appears, read: human MC4R in CHO cells, cAMP HTRF, 200 nM aMSH challenge, Kb from IC50 by Leff-Dougall equation, geometric mean, read-out: Kb (nM) Antagonist geometric.

Chain of human Melanocortin-4 receptor (MC4R) (P32245 whole entry): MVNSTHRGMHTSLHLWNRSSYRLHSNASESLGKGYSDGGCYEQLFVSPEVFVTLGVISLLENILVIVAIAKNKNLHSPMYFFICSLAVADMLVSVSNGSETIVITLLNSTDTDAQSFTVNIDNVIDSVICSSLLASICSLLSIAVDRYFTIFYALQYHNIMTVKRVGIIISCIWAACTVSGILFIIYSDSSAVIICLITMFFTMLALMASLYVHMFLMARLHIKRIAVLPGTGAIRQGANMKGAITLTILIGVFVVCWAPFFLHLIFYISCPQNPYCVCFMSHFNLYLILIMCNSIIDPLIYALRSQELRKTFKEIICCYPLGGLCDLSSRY

For `COc1cc([C@@H](C)C(=O)N2CCC3(CCc4cc(-c5coc(C)n5)c(C)nc4N3)C2)c(F)cn1` (mixture of isomers) [Example 33, (2R)-2-(5-fluoro-2-methoxypyridin-4-yl)-1-[7-methyl-6-(2-methyl-1,3-oxazol-4-yl)-3,4-dihydro-1H-spiro[1,8-naphthyridine-2,3′-pyrrolidin]-1′-yl]propan-1-one], under setting [1], the Kb – broadly, the equilibrium dissociation constant of an antagonist, usually derived from a functional assay – came to 3.2 nM. As for `COc1cc([C@@H](C)C(=O)N2CC[C@@]3(CCc4ccc(C)nc4N3)C2)nc(C)n1` (single isomer, unassigned) [Example 23, 2-(6-methoxy-2-methylpyrimidin-4-yl)-1-(7-methyl-3,4-dihydro-1H-spiro[1,8-naphthyridine-2,3′-pyrrolidin]-1′-yl)propan-1-one], the Kb under setting [1] worked out at 24 nM. Consider `COc1ccc([C@@H](C)C(=O)N2CC[C@@]3(CCc4cc(-c5ncccn5)c(C)nc4N3)C2)cc1F` (single isomer, unassigned) [Example 42], for which the Kb under setting [1] worked out at 9.4 nM. Still for that read-out and setting: the value for `COc1cc([C@](C)(F)C(=O)N2CC[C@@]3(CCc4cc(-c5ncccn5)c(C)nc4N3)C2)ccn1` (single isomer, unassigned) [Example 46] was 7.2 nM; that for `Cc1nc2c(cc1-c1ncccn1)CC[C@@]1(CCN(C(=O)[C@H](C)c3ccc(F)c(F)c3)C1)N2` (single isomer, unassigned) [Example 50] was 2.9 nM; that for `Cc1nc2c(cc1-c1nnn(C)n1)CC[C@@]1(CCN(C(=O)Cc3ccc(C(F)(F)F)cc3)C1)N2` (single isomer, unassigned) [Example 65, 1-[7-methyl-6-(2-methyl-2H-tetrazol-5-yl)-3,4-dihydro-1H-spiro[1,8-naphthyridine-2,3′-pyrrolidin]-1′-yl]-2-[4-(trifluoromethyl)phenyl]ethan-1-one] was 10 nM. As for `COc1cc([C@@H](C)C(=O)N2CC[C@@]3(CCc4cc(-c5ncccn5)c(C)nc4N3)C2)cc(OC)n1` (single isomer, unassigned) [Example 83], the Kb under setting [1] amounted to 0.54 nM.

For the compound `COc1cc(OC)cc([C@@H](C)C(=O)N2CC[C@@]3(CCc4cc(-c5cnn(C)c5)c(C)nc4N3)C2)c1` (single isomer, unassigned) [Example 90], the Kb under setting [1] turned out to be 0.4 nM. Regarding `COc1cc([C@@H](C)C(=O)N2CC[C@@]3(CCc4cc(-c5nc(C(F)(F)F)n(C)n5)c(C)nc4N3)C2)c(F)cn1` (single isomer, unassigned) [Example 92], the Kb under setting [1] was 0.16 nM.

For the compound `COc1cc([C@@H](C)C(=O)N2CC[C@@]3(CCc4cc(-c5nc(C(F)(F)F)n(C)n5)c(C)nc4N3)C2)c(Cl)cn1` (single isomer, unassigned) [Example 94], the Kb under setting [1] is 0.12 nM. As for `COc1cc([C@@H](C)C(=O)N2CC[C@@]3(CCc4ccc(C)nc4N3)C2)c(F)cn1` (single isomer, unassigned) [Example 98], the Kb under setting [1] is 19 nM. As to `COc1cc([C@@H](C)C(=O)N2CC[C@@]3(CCc4ccc(C)nc4N3)C2)c(Cl)cn1` (single isomer, unassigned) [Example 100], under setting [1], the Kb is 5.5 nM. Regarding `COc1cc([C@@H](C)C(=O)N2CC[C@@]3(CCc4cc(Cl)c(C)nc4N3)C2)c(F)cn1` (single isomer, unassigned) [Example 102], under setting [2], the Kb is over 92 nM.

With `COc1cc([C@@H](C)C(=O)N2CC[C@@]3(CCc4cc(-c5cnn(C)c5)c(C)nc4N3)C2)c(Cl)cn1` (single isomer, unassigned) [Example 104], the antagonist equilibrium constant (Kb) under setting [2] stood at 0.06 nM. On the same count and under the same terms, the same measure for `Cc1nc2c(cc1-c1nnn(C)n1)CC[C@@]1(CCN(C(=O)[C@H](C)c3ccc(C(F)(F)F)cc3)C1)N2` (single isomer, unassigned) [Example 109]: 5.8 nM; for `COc1cc([C@@H](C)C(=O)N2CCC3(CCc4cc(-c5nc(OC)n(C)n5)c(C)nc4N3)C2)c(F)cn1` (single isomer, unassigned) [Example 112]: 2 nM; for `COc1cc(C(C)C(=O)N2CC[C@@]3(CCc4cc(-c5nc(C(F)F)n(C)n5)c(C)nc4N3)C2)nc(C)n1` (single isomer, unassigned) [Example 123]: 0.5 nM. For the compound `COc1cc(C(C)C(=O)N2CC[C@@]3(CCc4cc(-c5nnn(C)n5)c(C)nc4N3)C2)ccn1` (single isomer, unassigned) [Example 125], the Kb under setting [2] is 5.1 nM.

As to `COc1cc(C(C)C(=O)N2CC[C@@]3(CCc4cc(-c5nnn(C)n5)c(C)nc4N3)C2)nc(C(F)F)n1` (single isomer, unassigned) [Example 127], the Kb under setting [2] came out at 1.1 nM.

As to `COc1ncc(F)c(C(C)C(=O)N2CC[C@@]3(CCc4cc(-c5nnn(C)n5)c(C)nc4N3)C2)n1` (single isomer, unassigned) [Example 134], the Kb under setting [2] is over 97 nM. Same read-out and setting: the same measure for `COc1cc(C(C)C(=O)N2CC[C@@]3(CCc4cc(-c5ncccn5)c(C)nc4N3)C2)c(C)cn1` (single isomer, unassigned) [Example 136]: 0.16 nM; for `COc1cc([C@](C)(F)C(=O)N2CC[C@@]3(CCc4cc(-c5ncccn5)c(C)nc4N3)C2)c(F)cn1` (single isomer, unassigned) [Example 148]: 19 nM.

Regarding `Cc1nc2c(cc1-c1ncccn1)CC[C@@]1(CCN(C(=O)[C@H](C)c3ccc(F)cc3F)C1)N2` (single isomer, unassigned) [Example 190], the Kb under setting [2] was 5.9 nM. Consider `Cc1nc2c(cc1-c1cnn(C)c1)CC[C@@]1(CCN(C(=O)Cc3ccc(F)cc3)C1)N2` (stereo in doubt) [Example 89, 2-(4-fluorophenyl)-1-[7-methyl-6-(1-methyl-1H-pyrazol-4-yl)-3,4-dihydro-1H-spiro[1,8-naphthyridine-2,3′-pyrrolidin]-1′-yl]ethan-1-one], for which the antagonist dissociation constant (Kb) under setting [1] was over 40 nM. For `COc1cc([C@@H](C)C(=O)N2CC[C@@]3(CCc4cc(-c5nnn(C)n5)c(C)nc4N3)C2)c(F)cn1` [Example 13, (2R)-2-(5-Fluoro-2-methoxypyridin-4-yl)-1-[(2S)-7-methyl-6-(2-methyl-2H-tetrazol-5-yl)-3,4-dihydro-1H-spiro[1,8-naphthyridine-2,3′-pyrrolidin]-1′-yl]propan-1-one], the Kb amounted to 0.16 nM. Same read-out and setting: the same measure for `[2H]c1cc([2H])nc(-c2cc3c(nc2C)N[C@@]2(CC3)CCN(C(=O)[C@H](C)c3cc(OC)ncc3F)C2)n1` [Example 18, (2R)-2-(5-Fluoro-2-methoxypyridin-4-yl)-1-{(2S)-7-methyl-6-[(4,6-^2H2)pyrimidin-2-yl]-3,4-dihydro-1H-spiro[1,8-naphthyridine-2,3′-pyrrolidin]-1′-yl}propan-1-one]: 0.55 nM.

Regarding `COc1cc([C@@H](C)C(=O)N2CC[C@@]3(CCc4cc(-c5ncc(C(F)F)cn5)c(C)nc4N3)C2)c(F)cn1` [Example 21, (2R)-1-{(2S)-6-[5-(difluoromethyl)pyrimidin-2-yl]-7-methyl-3,4-dihydro-1H-spiro[1,8-naphthyridine-2,3′-pyrrolidin]-1′-yl}-2-(5-fluoro-2-methoxypyridin-4-yl)propan-1-one], the Kb under setting [1] came to 20 nM. Still for that read-out and setting: the value for `COc1cc([C@@H](C)C(=O)N2CC[C@@]3(CCc4cc(-c5cn(C(F)(F)F)c(C)n5)c(C)nc4N3)C2)c(F)cn1` [Example 27, (2R)-2-(5-fluoro-2-methoxypyridin-4-yl)-1-{(2S)-7-methyl-6-[2-methyl-1-(trifluoromethyl)-1H-imidazol-4-yl]-3,4-dihydro-1H-spiro[1,8-naphthyridine-2,3′-pyrrolidin]-1′-yl}propan-1-one] was 4.6 nM; that for `COc1cc([C@H](C)C(=O)N2CC[C@@]3(CCc4cc(-c5ncccn5)c(C)nc4N3)C2)c(F)cn1` [Example 28, (2S)-2-(5-fluoro-2-methoxypyridin-4-yl)-1-[(2S)-7-methyl-6-(pyrimidin-2-yl)-3,4-dihydro-1H-spiro[1,8-naphthyridine-2,3′-pyrrolidin]-1′-yl]propan-1-one] was over 97 nM; that for `COc1cc([C@@H](C)C(=O)N2CC[C@]3(CCc4cc(-c5ncccn5)c(C)nc4N3)C2)c(F)cn1` [Example 29, (2R)-2-(5-fluoro-2-methoxypyridin-4-yl)-1-[(2R)-7-methyl-6-(pyrimidin-2-yl)-3,4-dihydro-1H-spiro[1,8-naphthyridine-2,3′-pyrrolidin]-1′-yl]propan-1-one] was 12 nM. Turning to `COc1cc([C@H](C)C(=O)N2CC[C@]3(CCc4cc(-c5ncccn5)c(C)nc4N3)C2)c(F)cn1` [Example 30, (2S)-2-(5-fluoro-2-methoxypyridin-4-yl)-1-[(2R)-7-methyl-6-(pyrimidin-2-yl)-3,4-dihydro-1H-spiro[1,8-naphthyridine-2,3′-pyrrolidin]-1′-yl]propan-1-one], under setting [1], the Kb is over 54 nM.
